Drawing on article PMC10004634 (PLOS ONE, 2023), this text covers remaining binding for four molecules.

Read-outs that look alike come from different tables or passages of the source.

Some targets named below: FGFR2 (Homo sapiens, UniProt P21802); LIMK1 (Homo sapiens, UniProt P53667); PHKG1 (Homo sapiens, UniProt Q16816); PRKCD (Homo sapiens, UniProt Q05655).
What all share (test): biochemical
Holding throughout (set-up): KINOMEscan scanMAX competition binding, DNA-tagged kinases, qPCR read-out, percent control at 300 nM
(In general: Real-time PCR tracks product formation cycle by cycle.)

The target of a further test is T1, JNK1 (Homo sapiens, UniProt P45983).
T1 construct: gene MAPK8

The target of another test is T2, LZK (Homo sapiens, UniProt O43283).
T2 construct: gene MAP3K13
T2 sequence (O43283 1-966): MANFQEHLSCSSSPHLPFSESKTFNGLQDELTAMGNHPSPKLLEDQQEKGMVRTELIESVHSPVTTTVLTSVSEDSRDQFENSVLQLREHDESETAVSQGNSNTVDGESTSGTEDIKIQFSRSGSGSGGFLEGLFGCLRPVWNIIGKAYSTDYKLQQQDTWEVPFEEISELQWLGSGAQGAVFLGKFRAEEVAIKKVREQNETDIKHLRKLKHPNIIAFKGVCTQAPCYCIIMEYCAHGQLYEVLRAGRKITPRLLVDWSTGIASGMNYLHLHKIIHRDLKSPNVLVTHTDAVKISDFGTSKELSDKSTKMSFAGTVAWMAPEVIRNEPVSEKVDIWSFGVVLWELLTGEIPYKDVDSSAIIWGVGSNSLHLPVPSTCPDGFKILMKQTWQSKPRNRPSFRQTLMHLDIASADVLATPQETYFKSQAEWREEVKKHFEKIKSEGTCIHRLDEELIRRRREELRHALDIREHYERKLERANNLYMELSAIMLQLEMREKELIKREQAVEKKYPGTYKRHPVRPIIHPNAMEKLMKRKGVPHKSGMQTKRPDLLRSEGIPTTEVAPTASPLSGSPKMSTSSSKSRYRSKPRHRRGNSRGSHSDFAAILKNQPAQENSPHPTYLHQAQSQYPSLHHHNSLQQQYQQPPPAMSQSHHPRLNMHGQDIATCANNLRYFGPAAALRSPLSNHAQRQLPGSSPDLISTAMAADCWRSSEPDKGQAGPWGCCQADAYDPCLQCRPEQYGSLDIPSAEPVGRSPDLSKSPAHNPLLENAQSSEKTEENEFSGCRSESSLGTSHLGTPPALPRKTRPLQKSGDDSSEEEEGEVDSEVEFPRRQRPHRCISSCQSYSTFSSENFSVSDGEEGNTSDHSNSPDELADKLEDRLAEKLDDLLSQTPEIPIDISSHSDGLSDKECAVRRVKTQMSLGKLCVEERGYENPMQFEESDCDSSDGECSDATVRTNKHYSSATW

In another test the target is T3, TYRO3 (Homo sapiens, UniProt Q06418).
T3 sequence (Q06418 1-890): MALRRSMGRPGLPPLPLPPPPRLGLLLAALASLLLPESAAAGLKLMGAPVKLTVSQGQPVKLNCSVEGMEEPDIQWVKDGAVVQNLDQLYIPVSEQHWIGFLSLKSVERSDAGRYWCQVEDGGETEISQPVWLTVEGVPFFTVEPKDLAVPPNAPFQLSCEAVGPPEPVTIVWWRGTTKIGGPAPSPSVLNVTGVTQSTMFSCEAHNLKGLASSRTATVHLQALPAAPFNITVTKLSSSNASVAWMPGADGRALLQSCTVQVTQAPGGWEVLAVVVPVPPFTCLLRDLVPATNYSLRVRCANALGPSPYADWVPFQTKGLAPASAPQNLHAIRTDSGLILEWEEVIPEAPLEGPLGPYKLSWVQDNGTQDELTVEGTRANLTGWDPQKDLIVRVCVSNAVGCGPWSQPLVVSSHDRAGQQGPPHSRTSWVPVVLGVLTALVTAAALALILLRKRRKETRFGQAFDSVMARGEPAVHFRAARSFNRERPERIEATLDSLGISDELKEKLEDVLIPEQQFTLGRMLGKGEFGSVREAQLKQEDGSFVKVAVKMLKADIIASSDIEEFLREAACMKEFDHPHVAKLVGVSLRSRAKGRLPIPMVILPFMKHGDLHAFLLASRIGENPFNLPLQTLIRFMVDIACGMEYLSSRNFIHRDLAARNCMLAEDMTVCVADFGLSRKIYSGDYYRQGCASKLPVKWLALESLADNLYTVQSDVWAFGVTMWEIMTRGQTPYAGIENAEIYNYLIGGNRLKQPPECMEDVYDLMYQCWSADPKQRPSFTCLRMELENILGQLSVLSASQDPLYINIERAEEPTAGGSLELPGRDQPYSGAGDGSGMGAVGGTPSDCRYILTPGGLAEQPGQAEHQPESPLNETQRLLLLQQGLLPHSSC

Setting [1] is: read-out: Percent control / Zanubrutinib.
Where [2] appears, read: read-out: Percent control / Tirabrutinib.
Setting [3] is: read-out: Percent control / Ibrutinib.
The mark [4] stands for this setting: read-out: Percent control / Acalabrutinib.

PRKCD, sequence (Q05655 whole entry): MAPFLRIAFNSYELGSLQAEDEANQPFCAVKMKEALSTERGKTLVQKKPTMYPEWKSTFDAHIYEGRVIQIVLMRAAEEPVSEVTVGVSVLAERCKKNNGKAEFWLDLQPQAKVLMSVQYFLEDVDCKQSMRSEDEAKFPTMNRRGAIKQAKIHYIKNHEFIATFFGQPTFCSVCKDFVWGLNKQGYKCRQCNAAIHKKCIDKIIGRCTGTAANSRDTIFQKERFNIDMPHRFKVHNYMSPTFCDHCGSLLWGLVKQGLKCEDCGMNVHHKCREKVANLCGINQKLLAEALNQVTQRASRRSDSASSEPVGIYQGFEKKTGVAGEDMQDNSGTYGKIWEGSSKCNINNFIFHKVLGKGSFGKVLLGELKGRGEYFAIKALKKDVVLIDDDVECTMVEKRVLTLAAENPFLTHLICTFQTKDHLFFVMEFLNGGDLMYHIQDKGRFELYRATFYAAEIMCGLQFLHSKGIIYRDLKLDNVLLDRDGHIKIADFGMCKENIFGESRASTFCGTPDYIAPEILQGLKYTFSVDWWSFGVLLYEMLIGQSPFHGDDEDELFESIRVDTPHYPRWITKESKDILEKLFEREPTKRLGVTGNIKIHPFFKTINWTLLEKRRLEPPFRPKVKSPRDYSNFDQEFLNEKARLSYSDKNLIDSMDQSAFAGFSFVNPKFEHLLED
T1 sequence (P45983 whole entry): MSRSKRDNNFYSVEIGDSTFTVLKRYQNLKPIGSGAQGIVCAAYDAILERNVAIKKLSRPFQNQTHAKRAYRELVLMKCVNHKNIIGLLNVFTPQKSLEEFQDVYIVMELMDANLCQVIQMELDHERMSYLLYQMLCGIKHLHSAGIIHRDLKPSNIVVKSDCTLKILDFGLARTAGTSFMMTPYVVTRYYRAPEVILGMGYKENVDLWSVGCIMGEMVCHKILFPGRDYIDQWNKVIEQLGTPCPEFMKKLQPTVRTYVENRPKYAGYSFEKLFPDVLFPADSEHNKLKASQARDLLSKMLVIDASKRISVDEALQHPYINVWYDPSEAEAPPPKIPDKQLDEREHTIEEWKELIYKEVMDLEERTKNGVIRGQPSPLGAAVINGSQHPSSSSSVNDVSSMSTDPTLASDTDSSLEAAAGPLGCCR
FGFR2, sequence (P21802 whole entry): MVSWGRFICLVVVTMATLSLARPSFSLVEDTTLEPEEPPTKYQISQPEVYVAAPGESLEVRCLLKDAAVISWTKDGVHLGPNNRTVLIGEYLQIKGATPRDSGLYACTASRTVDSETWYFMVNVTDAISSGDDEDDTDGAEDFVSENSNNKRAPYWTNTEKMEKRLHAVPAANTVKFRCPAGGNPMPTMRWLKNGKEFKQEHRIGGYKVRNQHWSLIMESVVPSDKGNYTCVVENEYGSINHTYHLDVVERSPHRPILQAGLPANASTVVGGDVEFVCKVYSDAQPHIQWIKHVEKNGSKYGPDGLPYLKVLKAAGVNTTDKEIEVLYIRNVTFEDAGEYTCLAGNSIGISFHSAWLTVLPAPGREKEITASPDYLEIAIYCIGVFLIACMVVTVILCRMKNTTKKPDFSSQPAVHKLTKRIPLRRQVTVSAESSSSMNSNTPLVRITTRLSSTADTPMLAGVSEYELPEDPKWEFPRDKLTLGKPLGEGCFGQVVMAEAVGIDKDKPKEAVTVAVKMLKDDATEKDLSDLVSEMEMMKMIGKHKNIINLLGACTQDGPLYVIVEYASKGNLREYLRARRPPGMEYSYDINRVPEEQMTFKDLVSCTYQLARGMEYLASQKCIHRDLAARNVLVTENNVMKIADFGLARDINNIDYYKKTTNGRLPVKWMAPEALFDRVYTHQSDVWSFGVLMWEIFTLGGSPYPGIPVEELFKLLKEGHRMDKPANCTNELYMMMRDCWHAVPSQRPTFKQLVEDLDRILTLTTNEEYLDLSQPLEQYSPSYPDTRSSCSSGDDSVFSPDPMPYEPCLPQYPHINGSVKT
LIMK1, sequence (P53667 whole entry): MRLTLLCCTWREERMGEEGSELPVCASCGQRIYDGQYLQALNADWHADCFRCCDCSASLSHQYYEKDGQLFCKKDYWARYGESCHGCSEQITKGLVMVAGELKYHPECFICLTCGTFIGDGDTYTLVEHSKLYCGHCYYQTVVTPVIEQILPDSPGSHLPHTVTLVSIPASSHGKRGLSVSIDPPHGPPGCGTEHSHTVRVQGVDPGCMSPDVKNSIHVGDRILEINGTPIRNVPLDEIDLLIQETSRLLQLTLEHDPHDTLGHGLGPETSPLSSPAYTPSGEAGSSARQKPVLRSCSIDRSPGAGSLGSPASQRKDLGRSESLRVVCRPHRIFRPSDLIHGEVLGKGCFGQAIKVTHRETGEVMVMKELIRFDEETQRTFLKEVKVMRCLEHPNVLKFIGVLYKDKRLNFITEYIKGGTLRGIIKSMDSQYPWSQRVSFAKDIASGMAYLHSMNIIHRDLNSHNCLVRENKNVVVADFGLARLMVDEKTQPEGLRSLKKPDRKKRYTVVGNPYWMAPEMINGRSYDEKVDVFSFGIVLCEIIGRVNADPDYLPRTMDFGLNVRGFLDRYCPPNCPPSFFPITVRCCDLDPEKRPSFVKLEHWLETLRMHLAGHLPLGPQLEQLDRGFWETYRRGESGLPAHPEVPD
PHKG1, sequence (Q16816 whole entry): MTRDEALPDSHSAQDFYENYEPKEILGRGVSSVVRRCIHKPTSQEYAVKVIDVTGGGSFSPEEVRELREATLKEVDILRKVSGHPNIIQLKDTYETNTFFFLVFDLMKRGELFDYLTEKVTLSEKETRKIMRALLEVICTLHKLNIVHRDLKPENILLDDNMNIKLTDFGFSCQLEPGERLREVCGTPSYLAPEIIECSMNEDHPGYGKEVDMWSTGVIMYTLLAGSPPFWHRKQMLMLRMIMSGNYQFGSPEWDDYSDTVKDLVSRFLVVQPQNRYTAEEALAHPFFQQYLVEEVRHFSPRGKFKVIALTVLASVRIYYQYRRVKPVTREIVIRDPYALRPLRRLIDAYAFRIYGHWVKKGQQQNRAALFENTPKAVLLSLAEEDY

Take `C=CC(=O)N1CCC([C@@H]2CCNc3c(C(N)=O)c(-c4ccc(Oc5ccccc5)cc4)nn32)CC1` [Zanubrutinib]: the remaining binding at 0.3 µM amounted to 93% at FGFR2 (setting [1]); 100% on JNK1 (setting [1]); 100% at LIMK1 (setting [1]); 93% on LZK (setting [1]); 67% on PHKG1 (setting [1]); 83% at PRKCD (setting [1]). For the same molecule, the remaining binding at 0.3 µM on TYRO3 (setting [1]) was found to be 80%.
For the molecule `CC#CC(=O)N1CC[C@@H](n2c(=O)n(-c3ccc(Oc4ccccc4)cc3)c3c(N)ncnc32)C1` [Tirabrutinib], the remaining binding at 0.3 µM at JNK1 (setting [2]) stood at 83%; at LZK (setting [2]), 63%; at PHKG1 (setting [2]), 83%; on PRKCD (setting [2]) it was 90%; at TYRO3 (setting [2]), 99%.
On to `C=CC(=O)N1CCC[C@@H](n2nc(-c3ccc(Oc4ccccc4)cc3)c3c(N)ncnc32)C1` [Ibrutinib], for which the remaining binding at 0.3 µM at FGFR2 (setting [3]) was found to be 65%; on JNK1 (setting [3]), 96%; at LIMK1 (setting [3]), 57%; at LZK (setting [3]) it was 79%; on PRKCD (setting [3]) it was 90%; on TYRO3 (setting [3]) it was 61%.
For the molecule `CC#CC(=O)N1CCC[C@H]1c1nc(-c2ccc(C(=O)Nc3ccccn3)cc2)c2c(N)nccn12` [Acalabrutinib], the remaining binding at 0.3 µM was determined as 88% at FGFR2 (setting [4]); 93% at JNK1 (setting [4]); 47% on LIMK1 (setting [4]); 85% at LZK (setting [4]); 92% at PHKG1 (setting [4]).
